The values below come from US20260297542A1, “HERBICIDE RESISTANT PLANTS” (SYNGENTA CROP PROTECTION AG, priority 2023, published 2026).

SMILES strings stand for the structures. Where a chain is given by its changes, count along the chain named. Read-outs that look alike come from different tables or passages of the source.

Assay [1] addresses T1, His-TEV-AtPPO1 ΔcTP V002 (SEQ ID NO: 373) (Arabidopsis thaliana, UniProt P55826, L479M/S305L/Y426V).
T1 construct: with cTPs removed; made in house; host or cells: E. coli BL21 (DE3), His GraviTrap, partially purified
T1 sequence (P55826 with tags, fused parts or gaps S305L/Y426V/L479M): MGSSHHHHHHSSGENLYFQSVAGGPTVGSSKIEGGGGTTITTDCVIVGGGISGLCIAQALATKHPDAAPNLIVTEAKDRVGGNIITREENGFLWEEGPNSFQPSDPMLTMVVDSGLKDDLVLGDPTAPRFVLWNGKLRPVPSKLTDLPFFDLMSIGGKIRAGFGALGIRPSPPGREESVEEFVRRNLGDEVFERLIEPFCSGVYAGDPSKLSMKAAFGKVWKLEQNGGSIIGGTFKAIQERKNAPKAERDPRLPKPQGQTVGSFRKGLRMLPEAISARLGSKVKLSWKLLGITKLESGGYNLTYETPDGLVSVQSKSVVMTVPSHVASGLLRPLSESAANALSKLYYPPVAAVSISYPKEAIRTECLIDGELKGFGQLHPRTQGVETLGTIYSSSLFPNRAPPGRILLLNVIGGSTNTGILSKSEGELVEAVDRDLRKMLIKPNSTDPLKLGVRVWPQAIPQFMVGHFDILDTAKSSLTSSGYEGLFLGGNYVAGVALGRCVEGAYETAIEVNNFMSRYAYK
Briefly: PPO fluorescence IC50 assay, partially purified enzyme. It counts as biochemical. The source says:
(§1) A pET24 plasmid containing a DNA sequence encoding variants of AtPPO1 derived from Arabidopsis thaliana with cTPs removed and both a 6×His tag and TEV protease cleavage tag added at the N-terminus, codon-optimised for expression in E. coli, and under control of a T7 promoter, was synthesised by Twist Bioscience. The following variants were synthesised: WT AtPPO1 (SEQ ID NO: 370), AtPPO1 L479M (SEQ ID NO: 371), AtPPO1 L479N (SEQ ID NO: 372), AtPPO1 S305L Y426V (SEQ ID NO: 374) and AtPPO1 S305L Y426V L479M (SEQ ID NO: 373). This plasmid was expressed in E. coli BL21 (DE3) with 50 μg/mL kanamycin selection. 10 mL of overnight cultures grown at 37° C. were used to inoculate 1 L AIM (AIM-Terrific Broth Base including Trace elements, Formedium) in 2 L shake flasks. Cultures were grown at 37° C., 200 rpm for 3 hours and then overnight at 26° C. Cells were harvested centrifugation. 5-15 g of cell pellet was lysed in and resuspended in ratio of 1:1.5 in lysis buffer (20 mM Tris pH8, 500 mM sodium chloride, 10% glycerol, 1× complete Protease EDTA-free Inhibitor Tablet (Roche), 10 mM imidazole). The resuspension was sonicated at 75% using 10 cycles of 30 seconds, 40 seconds off. After sonication Triton X-100 was added to the lysates at a final concentration of 0.5%. The lysates were centrifuged at 20,000 rpm for 25 min at 4° C. Cleared lysates were loaded on His GraviTrap (Cytiva) columns, washed with 20 mL of lysis buffer and eluted in elution buffer (20 mM Tris pH8, 500 mM sodium chloride, 10% glycerol, 200 mM imidazole, 0.03% (v/v) Triton X-100). The eluate was desalted on a PD10 column and 2.5-3.2 mL was collected. Protein concentration was measured and calculated using the absorbance at 280 nm. Extracts were diluted 1 in 4 and 10 uL was analysed by SDS PAGE.
(§2) Partially purified Protoporphyrinogen Oxidase enzymes were assayed for activity using fluorescence adapted from the method of Shepherd & Dailey (Anal Biochem. 2005 344(1) 115-121). The assay was performed in black 384 well plates with a clear bottom and the total volume of the reaction mixture was 91 ul. The final assay mixture contained 100 mM K2HPO4 pH7.2, 1 mM Na2EDTA, 5 mM DTT, 20% glycerol (v/v), 0.05% Tween 20 (v/v), 1.1% DMSO (v/v), 1 uM protoporphyrinogen IX and 1.5 nM enzyme. Compounds were dissolved in DMSO at 1 mM and a 4-fold serial dilution carried out to give 8 rates. 1 ul was added to the assay mixture. This gave final compound concentrations of 11, 2.7, 0.69, 0.17, 0.04, 0.01, 0.002, 0.0007 uM. Enzyme and inhibitor were preincubated for 5 minutes prior to starting the reaction with the addition of the substrate. […] IC50s were calculated using GraphPad Prism 7.05 nonlinear regression (Table 6). Each compound was tested in duplicate.

Assay [2] concerns the target T2, His-TEV-AtPP01 ΔcTP L479N (SEQ ID NO: 372) (Arabidopsis thaliana, UniProt P55826, L479N).
T2 construct: with cTPs removed; made in house; host or cells: E. coli BL21 (DE3), His GraviTrap, partially purified
T2 sequence (P55826 with tags, fused parts or gaps L479N): T1 sequence (P55826 with tags, fused parts or gaps S305L/Y426V/L479M) with L290S, V411Y, M464N
The description is as above. It counts as biochemical.
Description: as §1, §2

[3] abbreviates: role: inhibitor, 1 uM protoporphyrinogen IX, <1.0 is below detection limit of assay.

What is called IC50 is the point on the concentration scale where inhibition reaches its midpoint. Take `C#CCN1C(=O)C(F)(F)Oc2cc(F)c(-n3c(=O)n(C)c(=S)n(C)c3=O)cc21` [Herbicide B, trifludimoxazin]: the IC50 was 2.1 nM in assay [1] and 1 nM in assay [2].
As for `COC(=O)C(C)ON=Cc1cc(-n2c(=O)cc(C(F)(F)F)n(C)c2=O)c(F)cc1Cl` (centres unmarked) [Flufenoximacil, flufenoximacil], the IC50 in assay [1] (setting [3]) is 863 nM; in assay [2] (setting [3]), 0.8 nM.
On to `CC(C)Oc1cc(-n2nc(C(C)(C)C)oc2=O)c(Cl)cc1Cl` [Oxadiazaon], for which the 50% inhibitory concentration (IC50) in assay [1] was 5620 nM; in assay [2] it was 6.1 nM.
The matching figures for `CCOC(=O)COc1ncccc1Oc1cc(-n2c(=O)cc(C(F)(F)F)n(C)c2=O)c(F)cc1Cl` [Herbicide A, epyrifenacil]: 447 nM and 0.9 nM.
The matching figures for `C#CCN1C(=O)COc2cc(F)c(N3C(=O)C4=C(CCCC4)C3=O)cc21` [Flumioxazin, flumioxazin]: 187 nM and 1 nM.
For `C#CCOc1cc(-n2nc3n(c2=O)CCCC3)c(Cl)cc1Cl` [Azafenadin], the values for the concentration for half-maximal inhibition (IC50) in assay [1] and in assay [2] were 149 nM and 0.8 nM, respectively.
Consider `CCOC(=O)COc1cc(-c2nn(C)c(OC(F)F)c2Cl)c(F)cc1Cl` [Pyraflufen-ethyl, pyraflufen-ethyl], for which the concentration for half-maximal inhibition (IC50) in assay [1] is 24.2 nM; in assay [2] it was 0.8 nM.
The matching figures for `CCOC(=O)[C@]1(C)CC(c2cc(-n3c(=O)n(C)c(=S)n(C)c3=O)c(F)cc2Cl)=NO1` [Herbicide D, ethyl (5S)-3-[2-chloro-5-(3,5-dimethyl-2,6-dioxo-4-thioxo-1,3,5-triazinan-1-yl)-4-fluoro-phenyl]-5-methyl-4H-isoxazole-5-carboxylate]: 335 nM and 0.8 nM.
The matching figures for `C=CCOC(=O)C(C)(C)OC(=O)c1cc(-n2c(=O)cc(C(F)(F)F)n(C)c2=O)ccc1Cl` [Butafenacil, butafenacil]: 12.5 nM and 0.9 nM.
For `CC(C)N(C)S(=O)(=O)NC(=O)c1cc(-n2c(=O)cc(C(F)(F)F)n(C)c2=O)c(F)cc1Cl` [Herbicide E, saflufenacil], the values for the IC50 in assay [1] and in assay [2] were 998 nM and 2.6 nM, respectively.
The matching figures for `CCOC(=O)C1(C)CC(c2cc(-n3c(=O)cc(C(F)(F)F)n(C)c3=O)c(F)cc2Cl)=NO1` (centres unmarked) [Herbicide C, 3-(2-chloro-4-fluoro-5-(3-methyl-2,6-dioxo-4-trifluoromethyl-3,6-dihydropyrimidin-1(2H)-yl)phenyl)-5-methyl-4,5-dihydroisoxazole-5-carboxylic acid ethyl ester]: 121 nM and 0.9 nM.
Regarding `C#CCN(C)c1c(C#N)cnn1-c1nn2c(c1Cl)CCCC2` [Pyraclonil], the concentration for half-maximal inhibition (IC50) came out at 5560 nM in assay [1] and 1.5 nM in assay [2].
The matching figures for `CS(=O)(=O)NC(=O)c1cc(Oc2ccc(C(F)(F)F)cc2Cl)ccc1[N+](=O)[O-]` [Fomesafen, fomesafen]: 0.5 nM and 1.4 nM.
